Laboratory results as given in patent US9045488B2, “PAA nanoparticles for tumor treatment and imaging” (Photolitec, LLC, priority 2012, dated 2015).
“Also recorded” adds a separate entry of the source.

Tests used:
[1] = system: COLO-26 tumor; assay: In vivo fluorescence imaging, Maestro GNIR-Flex, mice with induced COLO-26 tumor; design: species or system Balb/c mice; conditions: 4-48 hours post i.v. 0.47 mmoles/kg; excitation 575-605 nm, emission 645 nm long pass
Description: The images are color enhanced by computer assignment of color depth relative to fluorescent intensity. Exposure was 100 ms (fluorescence 0 and 8 ms 9 white light). […] The images are color enhanced by computer assignment of color depth relative to fluorescent intensity. […] The images are color enhanced by computer assignment of color depth relative to fluorescent intensity. […] The images are color enhanced by computer assignment of color depth relative to fluorescent intensity.

[2] = system: Colon 26 cancer cells; assay: MTT assay, percent survival of Colon 26 cancer cells with/without light treatment; assay type: cell-based; conditions: Colon 26 cells, 24 h incubation, no light or light 0.25-2 Joules; relative to the unconjugated compound
Description: (§1) FIG. 3 is a graph showing percent survival of Colon 26 cancer cells relative to concentration in the form of MTT Assay of compound PS815 vs. PS815 conjugated to PAA nanoparticle vs. PS815 both conjugated and post-loaded on PAA nanoparticle without light treatment.
as §1, with “4” for “3”, “nanoparticles. Light treatment was done at 0.25 Joules following 24 h incubation in Colon 26 cells.” for “nanoparticle without light treatment.”
as §1, with “5” for “3”, “nanoparticles. Light treatment was done at 0.5 Joules following 24 h incubation in Colon 26 cells.” for “nanoparticle without light treatment.”
as §1, with “6” for “3”, “nanoparticles. Light treatment was done at one Joule following 24 h incubation in Colon 26 cells. […]” for “nanoparticle without light treatment.”

In the case of “20-carboxyphenyl-2-[1-hexyloxyethyl]-2-devinyl pyropheophorbide-a methyl ester [PS812]”, the “fluorescent image clarity and definition / fluorescence imaging” value [1] is reported as “unexpectedly superior fluorescent imaging; also recorded: superiority of fluorescence imaging” and the “toxicity to the tumor cells (MTT assay, percent survival), effect of conjugation with nanoparticles” value [2] is reported as “unexpectedly increases toxicity to the cancer cells”.
